Test results reported in patent US6001597A, “Compositions and methods for producing heterologous polypeptides in Pichia methanolica” (ZymoGenetics, Inc., priority 1998, dated 1999).

Test system: P. mathanolica cells (strain CBS6515, UV-mutagenized)
Assay: Nystatin enrichment for auxotrophic mutants: titering of colony forming units, nystatin-treated versus control cells
Format: cell-based, Pichia methanolica
Conditions: 1 mg nystatin added to remainder of 500 ml culture in minimal broth with 5 g/L ammonium sulfate, incubated one additional hour; versus control cells without nystatin
Protocol: The cells are then transferred to a culture medium deficient in assimilable nitrogen so that cellular nitrogen stores are depleted. By "deficient in assimilable nitrogen" it is meant that the medium lacks an amount of nitrogen sufficient to support growth of the cells. Depletion of cellular nitrogen stores will generally require about 12 to 24 hours of incubation, with 16 hours being sufficient under common conditions. Following depletion of nitrogen stores, the cells are cultured in a defined culture medium comprising an inorganic nitrogen source and an amount of an antifungal antibiotic sufficient to kill growing P. mathanolica cells. The antibiotic nystatin (mycostatin) is particularly preferred. Preferred inorganic nitrogen sources are those comprising ammonium ions, such as ammonium sulfate. In general, the medium will contain 10-200 mM ammonium, preferably about 60 mM ammonium. Nystatin is included at a concentration of 0.1 to 100 mg/l, preferably 0.5 to 20 mg/L, more preferably about 2 mg/L ([…]). […] Those skilled in the art will recognize that the actual antibiotic concentration and exposure time required to kill prototrophic cells can be readily determined empirically,and certain adjustments may be necessary to compensate for variations in specific activity between individual batches of antibiotic. […]

C[C@@H]1[C@H](O)[C@@H](C)/C=C/C=C/CC/C=C/C=C/C=C/C=C/C(O[C@H]2O[C@H](C)[C@@H](O)[C@H](N)[C@@H]2O)CC2O[C@](O)(CC(O)C(O)CCC(O)CC(O)CC(O)CC(=O)O[C@H]1C)CC(O)C2C(=O)O (stereo partly shown) [nystatin]
decrease in the number of viable cells (colony forming units), factor: 10^4
